Laboratory results as given in BindingDB's records for doi:10.1021/jm030921v (Uppsala University, 2004).
pKi: −log10 of the molar value. Numbered stars: 1 amine (or outer) side, 2 acyl side, 3 side chain; on linkers, the order of the positions; unused ones are H or OH. Bridge positions count the residues as written; N and C are the ends. Peptide text beside a SMILES is read from it. CH2 = C([*:1])[*:2]

The molecules below were run against Type-2 angiotensin II receptor (Sus scrofa) (assay: Binding affinity for Angiotensin II receptor type 2 using [125I]- Ang II in pig uterus myometrium).

pKi | Compound
< 5.00 | N=C(N)NCCC[C@H](NC(=O)[C@@H](N)CC(=O)O)C(=O)Nc1ccc2c(c1)CN(CC(=O)N[C@@H](Cc1cnc[nH]1)C(=O)N1CCC[C@H]1C(=O)N[C@@H](Cc1ccccc1)C(=O)O)C(=O)[C@H](Cc1ccc(O)cc1)N2 [Angiotensin II analogue]
< 5.00 | CC(C)[C@H](NC(=O)[C@H](C)NC(=O)[C@@H](N)CC(=O)O)C(=O)Nc1ccc2c(c1)CN(CC(=O)N[C@@H](Cc1cnc[nH]1)C(=O)N1CCC[C@H]1C(=O)N[C@@H](Cc1ccccc1)C(=O)O)C(=O)[C@H](Cc1ccc(O)cc1)N2 [Angiotensin II analogue]
< 5.00 | CC(C)[C@H](NC(=O)[C@H](CCCNC(=N)N)NC(=O)[C@@H](N)CC(=O)O)C(=O)N[C@@H](Cc1ccc(O)cc1)C(=O)Nc1ccc2c(c1)CN(CC(=O)N[C@@H](Cc1ccccc1)C(=O)O)C(=O)[C@H](Cc1cnc[nH]1)N2 [Angiotensin II analogue]
9.21 | N=C(N)NCCC[C@H](NC(=O)[C@@H](N)CC(=O)O)C(=O)N[C@H]1CSCSC[C@@H](C(=O)N[C@@H](Cc2cnc[nH]2)C(=O)N2CCC[C@H]2C(=O)N[C@@H](Cc2ccccc2)C(=O)O)NC(=O)[C@H](Cc2ccc(O)cc2)NC1=O [Angiotensin II analogue] (H-DRCYCHPF-OH; linker 3-5 via CH2)
